Test system: Mycobacterium tuberculosis
Assay: The compound was tested for its ability to inhibit the growth of Mycobacterium tuberculosis strain H6/99; Resistant
Format: functional, organism-based

SMILES | MIC
NNC(=O)c1ccncc1 | Resistant
CO[C@H]1/C=C/O[C@@]2(C)Oc3c(C)c(O)c4c(O)c(c(/C=N/N5CCN(C)CC5)c(O)c4c3C2=O)NC(=O)/C(C)=C\C=C\[C@H](C)[C@H](O)[C@@H](C)[C@@H](O)[C@@H](C)[C@H](OC(C)=O)[C@@H]1C | Resistant
